System: KRAS PDC multicell spheroid viability
Experiment: Anticancer human tumor 825966-067-R-J1-PDC patient-derived colon carcinoma cell line growth inhibition [KRAS2]
Settings: for IC50: curve of first compound; for viability, T/C: stronger effect = lower value; active = viability on the fitted dose curve at most 10% of control; inactive = the rest
Outline: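 KRAS-mutant tumor cells were grown as spheroids with HUVEC endothelial cells and human MSCs as stroma. Targeted agents were tested alone and with KRAS pathway inhibitors. Doses started at or near clinical Cmax, or 10 microM, descending half-log.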

[1] = second compound 0.1 µM, first compound 0.000316 µM
[2] = second compound 0.1 µM, first compound 0.001 µM
[3] = second compound 0.1 µM, first compound 0.00316 µM
[4] = second compound 0.1 µM, first compound 0.01 µM
[5] = second compound 0.1 µM, first compound 0.0316 µM
[6] = second compound 0.316 µM, first compound 0.000316 µM
[7] = second compound 0.316 µM, first compound 0.001 µM
[8] = second compound 0.316 µM, first compound 0.00316 µM
[9] = second compound 0.316 µM, first compound 0.01 µM
[10] = second compound 0.316 µM, first compound 0.0316 µM
[11] = second compound 1 µM, first compound 0.000316 µM
[12] = second compound 1 µM, first compound 0.001 µM
[13] = second compound 1 µM, first compound 0.00316 µM
[14] = second compound 1 µM, first compound 0.01 µM
[15] = second compound 1 µM, first compound 0.0316 µM
[16] = second compound 3.16 µM, first compound 0.000316 µM
[17] = second compound 3.16 µM, first compound 0.001 µM
[18] = second compound 3.16 µM, first compound 0.00316 µM
[19] = second compound 3.16 µM, first compound 0.01 µM
[20] = second compound 3.16 µM, first compound 0.0316 µM
[21] = second compound 10 µM, first compound 0.000316 µM
[22] = second compound 10 µM, first compound 0.001 µM
[23] = second compound 10 µM, first compound 0.00316 µM
[24] = second compound 10 µM, first compound 0.01 µM
[25] = second compound 10 µM, first compound 0.0316 µM
[26] = second compound 0.1 µM, first compound 0.1 µM
[27] = second compound 0.316 µM, first compound 0.1 µM
[28] = second compound 1 µM, first compound 0.1 µM
[29] = second compound 3.16 µM, first compound 0.1 µM
[30] = second compound 10 µM, first compound 0.1 µM
[31] = second compound 0.1 µM, first compound 0.316 µM
[32] = second compound 0.1 µM, first compound 1 µM
[33] = second compound 0.1 µM, first compound 3.16 µM
[34] = second compound 0.1 µM, first compound 10 µM
[35] = second compound 0.316 µM, first compound 0.316 µM
[36] = second compound 0.316 µM, first compound 1 µM
[37] = second compound 0.316 µM, first compound 3.16 µM
[38] = second compound 0.316 µM, first compound 10 µM
[39] = second compound 1 µM, first compound 0.316 µM
[40] = second compound 1 µM, first compound 1 µM
[41] = second compound 1 µM, first compound 3.16 µM
[42] = second compound 1 µM, first compound 10 µM
[43] = second compound 3.16 µM, first compound 0.316 µM
[44] = second compound 3.16 µM, first compound 1 µM
[45] = second compound 3.16 µM, first compound 3.16 µM
[46] = second compound 3.16 µM, first compound 10 µM
[47] = second compound 10 µM, first compound 0.316 µM
[48] = second compound 10 µM, first compound 1 µM
[49] = second compound 10 µM, first compound 3.16 µM
[50] = second compound 10 µM, first compound 10 µM
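Note: spheroids exposed to compounds for 7 days.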
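Throughout, for viability, T/C: 100% = DMSO vehicle control viability.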

CC(=O)Nc1cccc(-n2c(=O)n(C3CC3)c(=O)c3c(Nc4ccc(I)cc4F)n(C)c(=O)c(C)c32)c1 + COc1cc2nc(C)nc(NC(C)c3cc(N)cc(C(F)(F)F)c3)c2cc1OC1CCOC1
inactive: viability, T/C (second compound 0.1 µM, first compound 0.0001 µM) 95.3% | viability, T/C [1] 114% | viability, T/C [2] 144% | viability, T/C [3] 128% | viability, T/C [4] 64% | viability, T/C [5] 84.8% | viability, T/C (second compound 0.316 µM, first compound 0.0001 µM) 95% | viability, T/C [6] 126% | viability, T/C [7] 128% | viability, T/C [8] 110% | viability, T/C [9] 94.2% | viability, T/C [10] 47.3% | viability, T/C (second compound 1 µM, first compound 0.0001 µM) 98.5% | viability, T/C [11] 103% | viability, T/C [12] 113% | viability, T/C [13] 114% | viability, T/C [14] 72.3% | viability, T/C [15] 30.6% | viability, T/C (second compound 3.16 µM, first compound 0.0001 µM) 109% | viability, T/C [16] 109% | viability, T/C [17] 128% | viability, T/C [18] 50.9% | viability, T/C [19] 18.8% | viability, T/C [20] 5.41%
> 31.6 nM: IC50 (second compound 0.1 µM)
3.25 nM: IC50 (second compound 3.16 µM)
active: viability, T/C (second compound 10 µM, first compound 0.0001 µM) 2.53% | viability, T/C [21] 2.62% | viability, T/C [22] 0.97% | viability, T/C [23] 0.39% | viability, T/C [24] 0.39% | viability, T/C [25] 0.27%
29.6 nM: IC50 (second compound 0.316 µM)
18.5 nM: IC50 (second compound 1 µM)
< 0.1 nM: IC50 (second compound 10 µM)

CN(C)C/C=C/C(=O)Nc1cc2c(Nc3ccc(F)c(Cl)c3)ncnc2cc1O[C@H]1CCOC1 + COc1cc2nc(C)nc(NC(C)c3cc(N)cc(C(F)(F)F)c3)c2cc1OC1CCOC1
inactive: viability, T/C [1] 94% | viability, T/C [2] 96.7% | viability, T/C [3] 82.9% | viability, T/C [4] 101% | viability, T/C [5] 96.1% | viability, T/C [26] 91.8% | viability, T/C [6] 103% | viability, T/C [7] 107% | viability, T/C [8] 95.9% | viability, T/C [9] 98.9% | viability, T/C [10] 105% | viability, T/C [27] 103% | viability, T/C [11] 92.2% | viability, T/C [12] 96% | viability, T/C [13] 105% | viability, T/C [14] 97.2% | viability, T/C [15] 99.2% | viability, T/C [28] 83.5% | viability, T/C [16] 133% | viability, T/C [17] 119% | viability, T/C [18] 107% | viability, T/C [19] 115% | viability, T/C [20] 106% | viability, T/C [29] 105% | viability, T/C [21] 108% | viability, T/C [22] 103% | viability, T/C [23] 116% | viability, T/C [24] 106% | viability, T/C [25] 105% | viability, T/C [30] 95.2%
> 100 nM: IC50 (second compound 0.1 µM) | IC50 (second compound 0.316 µM) | IC50 (second compound 1 µM) | IC50 (second compound 3.16 µM) | IC50 (second compound 10 µM)

COC(=O)c1ccc2c(C(=Nc3ccc(N(C)C(=O)CN4CCN(C)CC4)cc3)c3ccccc3)c(O)[nH]c2c1 + COc1cc2nc(C)nc(NC(C)c3cc(N)cc(C(F)(F)F)c3)c2cc1OC1CCOC1
1670 nM: IC50 (second compound 0.1 µM)
1570 nM: IC50 (second compound 0.316 µM)
< 31.6 nM: IC50 (second compound 10 µM)
836 nM: IC50 (second compound 1 µM)
592 nM: IC50 (second compound 3.16 µM)
active: viability, T/C [33] 0.3% | viability, T/C [34] 0.16% | viability, T/C [37] 0.33% | viability, T/C [38] 0.13% | viability, T/C [41] 0.16% | viability, T/C [42] 0.13% | viability, T/C [44] 8.39% | viability, T/C [45] 0.1% | viability, T/C [46] 2% | viability, T/C [30] 10.3% | viability, T/C [47] 1.07% | viability, T/C [48] 0.34% | viability, T/C [49] 0.13% | viability, T/C [50] 0.58%
inactive: viability, T/C [5] 89.6% | viability, T/C [26] 95.6% | viability, T/C [31] 81.4% | viability, T/C [32] 92.9% | viability, T/C [10] 94.4% | viability, T/C [27] 79.9% | viability, T/C [35] 82.4% | viability, T/C [36] 81.8% | viability, T/C [15] 88.1% | viability, T/C [28] 98.1% | viability, T/C [39] 92.3% | viability, T/C [40] 42.1% | viability, T/C [20] 95% | viability, T/C [29] 103% | viability, T/C [43] 101% | viability, T/C [25] 9.43%

COc1cc(Nc2ncc3c(n2)-c2ccc(Cl)cc2C(c2c(F)cccc2OC)=NC3)ccc1C(=O)O + COc1cc2nc(C)nc(NC(C)c3cc(N)cc(C(F)(F)F)c3)c2cc1OC1CCOC1
active: viability, T/C [25] 3.07% | viability, T/C [30] 1.62% | viability, T/C [47] 0.85% | viability, T/C [48] 2.07% | viability, T/C [49] 7.95% | viability, T/C [50] 1.44%
< 31.6 nM: IC50 (second compound 10 µM)
inactive: viability, T/C [5] 124% | viability, T/C [26] 93.5% | viability, T/C [31] 144% | viability, T/C [32] 171% | viability, T/C [33] 136% | viability, T/C [34] 130% | viability, T/C [10] 105% | viability, T/C [27] 123% | viability, T/C [35] 144% | viability, T/C [36] 140% | viability, T/C [37] 133% | viability, T/C [38] 145% | viability, T/C [15] 87% | viability, T/C [28] 155% | viability, T/C [39] 156% | viability, T/C [40] 137% | viability, T/C [41] 145% | viability, T/C [42] 118% | viability, T/C [20] 52% | viability, T/C [29] 127% | viability, T/C [43] 81.3% | viability, T/C [44] 110% | viability, T/C [45] 69.3% | viability, T/C [46] 112%
> 10000 nM: IC50 (second compound 0.1 µM) | IC50 (second compound 0.316 µM) | IC50 (second compound 1 µM) | IC50 (second compound 3.16 µM)

COc1cc2nccc(Oc3ccc(NC(=O)C4(C(=O)Nc5ccc(F)cc5)CC4)cc3)c2cc1OC + COc1cc2nc(C)nc(NC(C)c3cc(N)cc(C(F)(F)F)c3)c2cc1OC1CCOC1
inactive: viability, T/C [5] 80.9% | viability, T/C [26] 87.8% | viability, T/C [31] 83.9% | viability, T/C [32] 75.1% | viability, T/C [10] 96.2% | viability, T/C [27] 81.1% | viability, T/C [35] 77.5% | viability, T/C [36] 71.4% | viability, T/C [15] 77.1% | viability, T/C [28] 98.6% | viability, T/C [39] 78.5% | viability, T/C [40] 83.5% | viability, T/C [20] 82.3% | viability, T/C [29] 80.6% | viability, T/C [43] 91.9% | viability, T/C [44] 31.9% | viability, T/C [25] 21%
1460 nM: IC50 (second compound 0.316 µM)
active: viability, T/C [33] 9.68% | viability, T/C [34] 7.53% | viability, T/C [37] 6.75% | viability, T/C [38] 4.21% | viability, T/C [41] 4.2% | viability, T/C [42] 5.34% | viability, T/C [45] 2.11% | viability, T/C [46] 0.21% | viability, T/C [30] 3.18% | viability, T/C [47] 1.6% | viability, T/C [48] 1.58% | viability, T/C [49] 0.32% | viability, T/C [50] 0.7%
1630 nM: IC50 (second compound 1 µM)
1560 nM: IC50 (second compound 0.1 µM)
< 31.6 nM: IC50 (second compound 10 µM)
675 nM: IC50 (second compound 3.16 µM)

O=C(c1cc(Cc2n[nH]c(=O)c3ccccc23)ccc1F)N1CCN(C(=O)C2CC2)CC1 + COc1cc2nc(C)nc(NC(C)c3cc(N)cc(C(F)(F)F)c3)c2cc1OC1CCOC1
inactive: viability, T/C [5] 84.2% | viability, T/C [26] 91.5% | viability, T/C [31] 92.3% | viability, T/C [32] 77.2% | viability, T/C [33] 69.3% | viability, T/C [34] 75% | viability, T/C [10] 80.3% | viability, T/C [27] 79.2% | viability, T/C [35] 95.5% | viability, T/C [36] 80.5% | viability, T/C [37] 98.9% | viability, T/C [38] 95.9% | viability, T/C [15] 79.4% | viability, T/C [28] 81.5% | viability, T/C [39] 69.1% | viability, T/C [40] 87% | viability, T/C [41] 68.1% | viability, T/C [42] 89.6% | viability, T/C [20] 104% | viability, T/C [29] 115% | viability, T/C [43] 117% | viability, T/C [44] 113% | viability, T/C [45] 96.8% | viability, T/C [46] 88.8% | viability, T/C [25] 115% | viability, T/C [30] 121% | viability, T/C [47] 122% | viability, T/C [48] 117% | viability, T/C [49] 72% | viability, T/C [50] 89.5%
> 10000 nM: IC50 (second compound 0.1 µM) | IC50 (second compound 0.316 µM) | IC50 (second compound 1 µM) | IC50 (second compound 3.16 µM) | IC50 (second compound 10 µM)

From PubChem BioAssay AID1963865 (Molecular Pharmacology Branch, DTP, NCI, 2024)
